Patent US7112586B2, “Substituted diamine derivatives useful as motilin antagonists” (Ortho-McNeil Pharmaceutical, Inc., priority 2000, dated 2006)

Legend:
[1] = tested on: motilin induced contraction; assay: Rabbit tissue bath procedure: inhibition of motilin induced contraction of duodenum segments; set-up: species or system New Zealand White rabbit; conditions: 3 nM porcine motilin induced contraction, read-out: Tissues IC50
Procedure: Rabbit Tissue Bath Procedure
One New Zealand White rabbit (Covance) of either sex was euthanized with an IV injection of Sleepaway. The duodenum was quickly excised, the lumen rinsed with saline to clean, and the tissue placed in cold, aerated (95% O2–5% CO2) Tyrodes buffer (NaCl 136.9 mM, KCl 2.7 mM, CaCl2 1.8 mM, MgCl2 1.04 mM, NaH2PO4 0.42 mM, NaHCO3 11.9 mM, Glucose 5.55 mM, pH 7.4). The duodenum, being kept moist at all times, was cleaned of any excess mesenteric tissue, and then cut into 3 cm segments starting at the proximal end. Sixteen tissue segments were usually prepared from each duodenum. These segments were tied on both ends with 3-0 silk suture (Ethicon). One end of the tissue was attached to an S-hook on a custom made glass support rod (Crown Glass Co., Somerville) and the rod plus tissue were placed in a 15 ml isolated tissue bath (Radnoti). The other end of the glass rod was attached to a Grass Force Displacement Transducer FT03. The tissue was maintained in room temperature Tyrodes buffer pH 7.4 and continually gassed with 95% O2— 5% CO2. The tissues were adjusted to 1.0 g resting tension and maintained at that tension throughout the equilibration period. An Ml2 Tissue Bath Computer was used to record and analyze data.
The tissues were washed twice during a 30 minute equilibration period and readjusted to 1 g resting tension as necessary. After equilibration the tissues were challenged with 3 μM Carbachol (Carbamoylcholine Chloride-Sigma). After maximal contraction was attained, the tissues were washed 3 times with Tyrodes. The tissues were allowed a 20 minute resting/equilibration period, during which time they were washed once and readjusted to 1 g resting tension. The tissues were challenged a second time with 3 μM Carbachol, and this contraction was considered as maximal, or 100% contraction. The tissues were washed 3 times, equilibrated for 10 minutes, washed again and readjusted to 1 g resting tension. Vehicle or test compound in 30% DMSO-50 mM HEPES was added directly to the bath and the tissues were incubated for 20 minutes. Test compounds and vehicle were run in duplicate.
The percent inhibition by test compound of the motilin induced contraction was calculated by first determining the ratio of the vehicle contractions with Motilin compared to the Carbachol contractions. This Tissue Adjustment Factor (TAF) was used to determine the value for the potential uninhibited contraction with Motilin for each tissue. The percent inhibition was then determined by dividing the actual Motilin contraction in treated tissues by the potential uninhibited contraction and subtracting this number from 1. IC50 values were determined by graphing results with Kaleidograph graphing program.

Motilin Receptor = target: T1, Motilin Receptor (Oryctolagus cuniculus, UniProt G1T803); assay: Motilin receptor binding, rabbit colon membranes, 125I porcine motilin; set-up: Rabbit Colon % Inh / inhibition / % Inh (Rabbit colon): dose or concentration left out as unconfirmed; conditions: rabbit colon membranes; for inhibition: read-out: Rabbit Colon % Inh; for IC50: read-out: Rabbit Colon IC50
T1 construct: The muscle tissue was homogenized in 10 volumes of 50 mM Tris-Cl; from tissue; host or cells: rabbit colon smooth muscle, crude membrane homogenate

[2] = target: T2, motilin receptor preparation (Human antrum tissue) (Homo sapiens, UniProt O43193); assay: 125I-motilin binding to human antral stomach membranes; conditions: human antrum membranes; for inhibition at 1 µM: read-out: Human Antrum % Inh @1 μM
T2 construct: Human antrum tissue from Analytical Biological Services (Wilmington, Del.) was prepared as a motilin receptor preparation; tissue Analytical Biological Services (Wilmington, Del.); host or cells: human antrum (stomach) muscle tissue, crude membrane homogenate
Procedure: Human antrum tissue from Analytical Biological Services (Wilmington, Del.) was prepared as a motilin receptor preparation in the following manner. The muscle tissue was homogenized in 10 volumes of 50 mM Tris-Cl, 10 mM MgCl2, 0.1 mg/ml bacitracin, and 0.25 mM Peflabloc, pH 7.5) in a Polytron (29000 rpm, 4×15 seconds). The homogenate was centrifuged at 1000×g for 15 minutes and the supernatant discarded. The pellet was washed twice before being suspended in homogenizing buffer. The crude homogenate was resuspended through a 23 gauge needle before aliquoting and storing at −80° C. The human cloned receptor was prepared from HEK 293 cells overexpressed with the motilin receptor. Cell pellets were thawed and resuspended in 2–3 volumes of homogenizing buffer (10 mM Tris-Cl, 0.2 mM MgCl2, 5 mM KCl, 5 μg/ml aprotinin, leupeptin, and pepstatin A, and 50 μg/ml bacitracin, pH 7.5) and allowed to sit on ice for 15–20 minutes. The suspension was homogenized on ice in a Dounce type homogenizer using 15 strokes. Sucrose and EDTA were added to a final concentration of 0.25M and 1 mM, respectively, and mixed with a few additional strokes. The material was centrifuged at 400×g for 5 minutes, and the supernatant saved. The pellet was re-resuspended twice with 5 ml homogenizing buffer and rehomogenized as before, and the supernatants combined. The supernatant was centrifuged at 100000×g for 1 hour. The pellet is retained and resuspended with 5 ml of homogenizing buffer through a 19 g and 25 g needle. The suspension is aliquoted and stored at −80° C. until used. The binding assay contains the following components (50 mM HEPES, 5 mM MgCl2, and 1 mM EGTA, pH 7.0, 15 mg/ml BSA, 10 μg/ml aprotinin, leupeptin, and pepstatin A, 0.25 mg/ml bacitracin, and 10 mM benzamidine), ^125I-radiolabelled porcine motilin (50000–70000 cpm; specific activity 2000 Ci/mmol), test compound, and membrane protein. After 60 minutes at 30° C., the samples are placed on ice and centrifuged for 1 minute at 13000×g. The pellet is washed twice with 1 ml cold saline, and after removal of the final supernatant, the pellet at the bottom of the tube is counted in a gamma counter. Non-specific binding is measured by the inclusion of 1 μM unlabelled motilin. IC50 values were determined from Kaleidograph curves.
125I-Motilin Binding to Human Antral Stomach Membranes and the Human Cloned Receptor: […]

T2 sequence (O43193 whole entry): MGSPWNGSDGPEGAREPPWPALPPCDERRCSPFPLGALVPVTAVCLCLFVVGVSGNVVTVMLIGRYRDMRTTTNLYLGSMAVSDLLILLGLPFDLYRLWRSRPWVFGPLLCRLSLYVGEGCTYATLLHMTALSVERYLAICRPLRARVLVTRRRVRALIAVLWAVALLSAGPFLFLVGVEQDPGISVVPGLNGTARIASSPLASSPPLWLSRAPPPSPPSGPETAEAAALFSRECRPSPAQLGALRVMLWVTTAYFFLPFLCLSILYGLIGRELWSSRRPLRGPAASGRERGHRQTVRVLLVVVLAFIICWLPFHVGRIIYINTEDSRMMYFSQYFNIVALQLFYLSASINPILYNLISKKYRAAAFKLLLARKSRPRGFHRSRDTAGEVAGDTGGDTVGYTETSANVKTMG
T1 sequence (G1T803 1-400): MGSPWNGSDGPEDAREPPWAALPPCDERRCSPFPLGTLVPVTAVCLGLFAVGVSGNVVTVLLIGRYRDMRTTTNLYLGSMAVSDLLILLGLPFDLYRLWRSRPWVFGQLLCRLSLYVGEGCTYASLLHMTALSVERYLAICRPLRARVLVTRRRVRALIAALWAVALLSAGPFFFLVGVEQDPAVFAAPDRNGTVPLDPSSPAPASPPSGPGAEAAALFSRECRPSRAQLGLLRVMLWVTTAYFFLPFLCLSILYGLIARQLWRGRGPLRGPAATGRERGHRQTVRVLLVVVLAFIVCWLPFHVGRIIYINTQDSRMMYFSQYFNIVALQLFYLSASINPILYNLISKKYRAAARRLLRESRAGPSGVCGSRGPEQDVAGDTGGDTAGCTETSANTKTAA

| IC50 [1] [nM] | inhibition (Motilin Receptor) [%] | IC50 (Motilin Receptor) [nM] | Human Antrum % Inh @1 μM [2] [%] | IC50 [2] [nM] | inhibition at 1 µM [2] [%] | Structure (SMILES) |
| --- | --- | --- | --- | --- | --- | --- |
| > 30 | 71 | 1680 |  |  |  | O=C(c1ccc(F)cc1)N(CC1CCCC(N(Cc2cccc(C(F)(F)F)c2)C(=O)C(Cl)(Cl)Cl)C1)c1cccc(OCCN2CCOCC2)c1 (centres unmarked) [compound 96] |
| 30 | 80 | 390 |  |  |  | CC(C)(C)C(=O)N(Cc1cccc(Cl)c1)C1CCCC(CN(C(=O)c2ccc(F)cc2)c2cccc(OCCN3CCOCC3)c2)C1 (centres unmarked) [compound 105] |
| 30 | 89 | 81 |  |  |  | O=C(CCCC(=O)N1CCc2ccccc2C1c1ccccc1)N(Cc1ccc(F)cc1)c1cccc(OCCN2CCOCC2)c1 (centres unmarked) [compound 153] |
| 21 | 85 | 178 |  |  |  | O=C(CCCC(=O)N(Cc1ccc(F)cc1)c1cccc(OCCN2CCOCC2)c1)N(CCc1ccccc1)Cc1cccc(Cl)c1 [compound 162] |
| 19 | 85 | 174 |  |  |  | O=C(CCC(=O)N(Cc1ccc(F)cc1)c1cccc(OCCN2CCOCC2)c1)N(CCc1ccccc1)Cc1cccc(Cl)c1 [compound 163] |
| 48 | 84 | 194 |  |  |  | O=C(CCC(=O)N(Cc1cccc(F)c1)c1cccc(OCCN2CCOCC2)c1)N(CCc1ccccc1)Cc1ccccc1 [compound 164] |
| 240 | 97 | 46 |  |  |  | O=C(CCCC(=O)N(Cc1cccc(F)c1)c1cccc(OCCN2CCOCC2)c1)N(CCc1ccccc1)Cc1ccccc1 [compound 169] |
| 185 | 81 | 163 |  |  |  | O=C(CCCC(=O)N(Cc1ccccc1F)c1cccc(OCCN2CCOCC2)c1)N(CCc1ccccc1)Cc1ccccc1 [compound 170] |
| 230 | 63 | 462 |  |  |  | COc1ccc(CN(C(=O)CCCC(=O)N(CCc2ccccc2)Cc2ccccc2)c2cccc(OCCN3CCOCC3)c2)cc1 [compound 171] |
| 280 | 84 | 290 |  |  |  | O=C(CCCC(=O)N(Cc1ccc(Cl)cc1)c1cccc(OCCN2CCOCC2)c1)N(CCc1ccccc1)Cc1ccccc1 [compound 173] |
| 15 | 100 | 70 |  |  |  | CCN(CC)CCOc1cccc(N(Cc2ccc(F)cc2)C(=O)CCCC(=O)N(CCc2ccccc2)Cc2ccccc2)c1 [compound 178] |
| 23 | 85 | 240 |  |  |  | O=C(CCCC(=O)N(Cc1ccc(F)cc1)c1cccc(OCCN2CCNCC2)c1)N(CCc1ccccc1)Cc1ccccc1 [compound 179] |
| 11 | 99 | 14 |  |  |  | O=C(CCCC(=O)N(Cc1ccc(F)cc1)c1cccc(OCCN2CCCC2)c1)N(CCc1ccccc1)Cc1ccccc1 [compound 180] |
| 12 | 100 | 93 |  |  |  | CN(C)CCOc1cccc(N(Cc2ccc(F)cc2)C(=O)CCCC(=O)N(CCc2ccccc2)Cc2ccccc2)c1 [compound 181] |
| 53 | 94 | 22 |  |  |  | O=C(CCCC(=O)N(Cc1ccc(F)cc1)c1cccc(OCCN2CCCCC2)c1)N(CCc1ccccc1)Cc1ccccc1 [compound 182] |
| 92 | 100 | 247 |  |  |  | O=C(CCCC(=O)N(Cc1ccc(F)cc1)c1cccc(OCCCN2CCCCC2)c1)N(CCc1ccccc1)Cc1ccccc1 [compound 188] |
| 4 | 100 | 6 |  |  |  | Cc1c(OCCN2CCCC2)cccc1N(Cc1ccc(F)cc1)C(=O)CCCC(=O)N(CCc1ccccc1)Cc1ccccc1 [compound 196] |
| 7.6 | 85 | 9 |  |  |  | O=C(CCCC(=O)N(Cc1ccc(F)cc1)c1cccc(OCCN2CCCC2)c1)N(CCc1ccccc1)Cc1cccc([N+](=O)[O-])c1 [compound 197] |
| 16.8 | 93 | 57 |  |  |  | O=C(CCCC(=O)N(Cc1ccc(F)cc1)c1cccc(OCCN2CCCC2)c1)N(CCc1ccccn1)Cc1cccc(Cl)c1 [compound 201] |
| 230 | 100 | 330 |  |  |  | O=C(CCCC(=O)N(Cc1ccc(F)cc1)c1cccc(OCCN2CCCC2)c1)N(CCc1ccc(Cl)cc1)Cc1cccc(Cl)c1 [compound 202] |
| 3 | 89 | 29 |  |  |  | O=C(CCCC(=O)N(Cc1ccc(F)cc1)c1cccc(OCCN2CCCC2)c1)N(CCc1cccs1)Cc1cccc(Cl)c1 [compound 204] |
| 21 | 84 | 59 |  |  |  | Cc1c(OCCN2CCCC2)cccc1N(CC1CCCC(N(Cc2cccc(Cl)c2)C(=O)C(Cl)(Cl)Cl)C1)C(=O)c1ccc(F)cc1 (centres unmarked) [compound 209] |
| 24 | 90 | 86 |  |  |  | Cc1c(OCCN2CCCC2)cccc1N(CC1CCCC(N(Cc2ccccc2)C(=O)C(Cl)(Cl)Cl)C1)C(=O)c1ccc(F)cc1 (centres unmarked) [compound 210] |
| 27 | 84 | 58 |  |  |  | O=C(c1ccc(F)cc1)N(CC1CCCC(N(Cc2ccccc2)C(=O)C(Cl)(Cl)Cl)C1)c1cccc(OCCN2CCCC2)c1 (centres unmarked) [compound 213] |
|  |  |  | 100 |  |  | CC(C)(C)C(=O)N(Cc1ccccc1)C1CCC(CN(C(=O)c2ccc(F)cc2)c2cccc(OCCN3CCCC3)c2)C1 (centres unmarked) [compound 216] |
|  |  |  | 98 |  |  | CC(C)(C)C(=O)N(Cc1cccc(Cl)c1)C1CCC(CN(C(=O)c2ccc(F)cc2)c2cccc(OCCN3CCCC3)c2)C1 (centres unmarked) [compound 217] |
|  |  |  | 98 | 7.6 |  | O=C(c1ccc(F)cc1)N(CC1CCC(N(Cc2cccc([N+](=O)[O-])c2)C(=O)C(Cl)(Cl)Cl)C1)c1cccc(OCCN2CCCC2)c1 (centres unmarked) [compound 219] |
|  |  |  |  |  | 92 | CC(C)(C)C(=O)N(Cc1ccc(F)c(F)c1)[C@@H]1CC[C@H](CN(C(=O)c2ccc(F)cc2)c2cccc(OCCN3CCCC3)c2)C1 [compound 220] |
|  |  |  | 94 |  |  | CC(C)(C)C(=O)N(Cc1ccccc1)C1C=CC(CN(C(=O)c2ccc(F)cc2)c2cccc(OCCN3CCCC3)c2)C1 (centres unmarked) [compound 221] |
|  |  |  |  | 25 | 100 | CC(C)(C)C(=O)N(Cc1ccc(Cl)c(Cl)c1)C1CCCC(CN(C(=O)c2ccc(F)cc2)c2cccc(OCCN3CCCC3)c2)C1 (centres unmarked) [compound 227] |
